Measurements: patent US20100048714A1, “Methods and Compositions Related to Inhibition of Ceramide Synthesis” (University of Utah Research Foundation, priority 2006, published 2010)

System: Sprague-Dawley rats
Test: Lipid infusion with hyperinsulinemic euglycemic clamps
Format: in vivo, rat
Details: for Glucose, During Clamp / FFA, Before Clamp / FFA, Before Infusion / FFA, During Clamp / Glucose, Before Clamp / Glucose, Before Infusion / Insulin, Before Clamp / Insulin, Before Infusion / Insulin, During Clamp: plasma, mean ± standard error, n=4; for Glucose, During Clamp: 30 minute steady state
Text: The more common mechanism by which insulin resistance likely develops in the obese is through the accumulation of fats in tissues not-suited for lipid storage. Indeed, intramyocellular lipid levels inversely correlate with insulin sensitivity, and are one of the best predictors of insulin resistance in humans. To mimic this condition in rats, a 20% lard oil-heparin infusate was delivered into the bloodstream of Sprague-Dawley rats via jugular catheters. […] To assess muscle insulin sensitivity during the infusion, hyperinsulinemic-euglycemic clamps were performed on conscious, unrestrained rats during the terminal 90 minutes of the protocol. Lard oil infusion decreased insulin-stimulated glucose disposal to 47% of glycerol treated control subjects (FIG. 3C). […] Differences in the glucose infusion rats could not be accounted for by the slight differences in the glucose concentration that was achieved during the clamp nor to differences in steady-state insulin concentrations (Table 3).
Male Sprague-Dawley rats (˜250 grams) were randomly divided into nine different groups. Glycerol, 20% lard oil, or 20% soy oil emulsions were prepared as previously described (Stein 1997) and infused at a constant rate of 5 mL/Kg/hour. To activate lipoprotein lipase, heparin (6 units/hour) was added to the triglyceride emulsions. Lipids were infused in animals treated with control injections (normal saline), myriocin (100 μg/Kg IP) or cycloserine (50 mg/Kg IP). Drugs were given 12 hours prior to lipid infusion and equivalent doses were given intravenously at the time of infusion. […] Following lipid infusion animals were deeply anesthetized with sodium pentobarbital and soleus muscles were rapidly dissected out and rapidly frozen in liquid nitrogen.
Clamps were performed in conscious unrestrained animals using swivels and tethers (Instech, Plymouth Meeting, Pa.) to allow uninterrupted movement of the animal without disruption of infusion lines. Hyperinsulinemia was initiated by intravenous infusion of insulin (10 mU/kg/min at a flow rate of 4 μL/min).

[1] = Intralipid infusion, with or without myriocin or cycloserine
[2] = lard oil infusion, with or without myriocin or cycloserine

CCCCCCC(=O)CCCCCC/C=C/C[C@@H](O)[C@H](O)[C@@](N)(CO)C(=O)O [Myriocin]
insulin-stimulated glucose disposal / insulin resistance [1]: Neither myriocin nor cycloserine prevented | muscle DAG levels [1]: Neither myriocin nor cycloserine prevented | ceramide in skeletal muscle [2]: blocked ceramide synthesis | diacylglycerol (DAG) in muscle [2]: Neither myriocin nor cycloserine reduced DAG | glucose utilization in clamp (lard-infused animals): restored glucose utilization | Glucose, During Clamp (Lipid: Glycerol): 111.2 ± 6.6 mg/dL | Glucose, During Clamp (Lipid: Lard oil (PBS or drug)): 108.4 ± 1.0 mg/dL | Glucose, During Clamp (Lipid: Soy oil (PBS or drug)): 108.3 ± 0.4 mg/dL | FFA, Before Clamp (Lipid: Glycerol): 0.455 ± 0.13 mM | FFA, Before Infusion (Lipid: Glycerol): 1.22 ± 0.25 mM | FFA, During Clamp (Lipid: Glycerol): 0.872 ± 0.75 mM | Glucose, Before Clamp (Lipid: Glycerol): 117.7 ± 9.1 mg/dL | Glucose, Before Infusion (Lipid: Glycerol): 103.0 ± 10.6 mg/dL | Insulin, Before Clamp (Lipid: Glycerol): 1.90 ± 0.71 ng/mL | Insulin, Before Infusion (Lipid: Glycerol): 0.436 ± 0.03 ng/mL | Insulin, During Clamp (Lipid: Glycerol): 8.02 ± 2.52 ng/mL | FFA, Before Clamp (Lipid: Lard oil (PBS or drug)): 1.52 ± 0.49 mM | FFA, Before Infusion (Lipid: Lard oil (PBS or drug)): 0.912 ± 0.30 mM | FFA, During Clamp (Lipid: Lard oil (PBS or drug)): 2.427 ± 0.30 mM | Glucose, Before Clamp (Lipid: Lard oil (PBS or drug)): 123.3 ± 3.8 mg/dL | Glucose, Before Infusion (Lipid: Lard oil (PBS or drug)): 101.0 ± 11.4 mg/dL | Insulin, Before Clamp (Lipid: Lard oil (PBS or drug)): 1.90 ± 0.50 ng/mL | Insulin, Before Infusion (Lipid: Lard oil (PBS or drug)): 0.407 ± 0.47 ng/mL | Insulin, During Clamp (Lipid: Lard oil (PBS or drug)): 17.02 ± 3.79 ng/mL | FFA, Before Clamp (Lipid: Soy oil (PBS or drug)): 1.58 ± 0.57 mM | FFA, Before Infusion (Lipid: Soy oil (PBS or drug)): 1.01 ± 0.10 mM | FFA, During Clamp (Lipid: Soy oil (PBS or drug)): 1.80 ± 0.44 mM | Glucose, Before Clamp (Lipid: Soy oil (PBS or drug)): 105.0 ± 4.6 mg/dL | Glucose, Before Infusion (Lipid: Soy oil (PBS or drug)): 109.3 ± 10.4 mg/dL | Insulin, Before Clamp (Lipid: Soy oil (PBS or drug)): 2.46 ± 1.1 ng/mL | Insulin, Before Infusion (Lipid: Soy oil (PBS or drug)): 0.305 ± 0.08 ng/mL | Insulin, During Clamp (Lipid: Soy oil (PBS or drug)): 11.55 ± 2.91 ng/mL
